Assay results published in patent US20250197358A1, “PESTICIDALLY ACTIVE THIOSEMICARBAZONE COMPOUNDS” (BASF SE, priority 2022, published 2025).

What was measured:
Experiment in all cases: whole plant or invertebrate
Format in all cases: in vivo
[1] = test system: orchid thrips (Dichromothrips corbetti); conditions: adult thrips, 72 hours after treatment, read-out: mortality in comparison with untreated controls
Method: Dichromothrips corbetti adults used for bioassay were obtained from a colony maintained continuously under laboratory conditions. For testing purposes, the test compound is diluted in a 1:1 mixture of acetone:water (vol:vol), plus Kinetic® HV at a rate of 0.01% v/v.
Thrips potency of each compound was evaluated by using a floral-immersion technique. All petals of individual, intact orchid flowers were dipped into treatment solution and allowed to dry in Petri dishes. Treated petals were placed into individual re-sealable plastic along with about 20 adult thrips. All test arenas were held under continuous light and a temperature of about 28° C. for duration of the assay. After 3 days, the numbers of live thrips were counted on each petal. The percent mortality was recorded 72 hours after treatment.

[2] = test system: yellow fever mosquito (Aedes aegypti); conditions: 48 h, larval mortality after 2 days, read-out: mortality in comparison with untreated controls
Method: Example B1: Action on Yellow Fever Mosquito (Aedes aegypti)
For evaluating control of yellow fever mosquito (Aedes aegypti) the test unit consisted of 96-well-microtiter plates containing 200 μl of tap water per well and 5-15 freshly hatched A. aegypti larvae.
The active compounds or mixtures were formulated using a solution containing 75% (v/v) water and 25% (v/v) DMSO. Different concentrations of formulated compounds or mixtures were sprayed onto the insect diet at 2.5 μl, using a custom built micro atomizer, at two replications. For experimental mixtures in these tests identical volumes of both mixing partners at the desired concentrations respectively, were mixed together.
After application, microtiter plates were incubated at 28±1° C., 80±5% RH for 2 days. Larval mortality was then visually assessed.

[3] = test system: boll weevil (Anthonomus grandis); conditions: 120 h, egg and larval mortality after 5 days, read-out: mortality in comparison with untreated controls
[4] = test system: tobacco budworm (Heliothis virescens); conditions: 120 h, egg and larval mortality after 5 days, read-out: mortality in comparison with untreated controls
Method: For evaluating control of tobacco budworm (Heliothis virescens) the test unit consisted of 96-well-microtiter plates containing an insect diet and 15-25 H. virescens eggs.
Different concentrations of formulated compounds were sprayed onto the insect diet at 10 μl, using a custom-built micro atomizer, at two replications.
After application, microtiter plates were incubated at about 28+1° C. and about 80+5% relative humidity for 5 days. Egg and larval mortality were then visually assessed.

[5] = test system: diamond back moth (Plutella xylostella); conditions: in Brassica oleracea, foliar, 3rd instar larvae, 72 hours after treatment, read-out: mortality in comparison with untreated controls
Method: Surfactant (Kinetic® HV) is added at a rate of 0.01% (v/v). The test solution is prepared at the day of use.
Leaves of cabbage were dipped in test solution and air-dried. Treated leaves were placed in petri dishes lined with moist filter paper and inoculated with ten 3rd instar larvae. Mortality was recorded 72 hours after treatment. Feeding damages were also recorded using a scale of 0-100%.

[6] = test system: southern armyworm (Spodoptera eridania); conditions: in Phaseolus lunatus, 96 h, 2nd instar larvae, 4 days after treatment, read-out: mortality in comparison with untreated controls
Method: The 10,000 ppm solution was serially diluted in 100% cyclohexanone to make interim solutions. These served as stock solutions for which final dilutions were made by the Tecan in 50% acetone:50% water (v/v) into 10 or 20 ml glass vials. A nonionic surfactant (Kinetic®) was included in the solution at a volume of 0.01% (v/v). The vials were then inserted into an automated electrostatic sprayer equipped with an atomizing nozzle for application to plants/insects.
Lima bean plants (variety Sieva) were grown 2 plants to a pot and selected for treatment at the 1st true leaf stage. Test solutions were sprayed onto the foliage by an automated electrostatic plant sprayer equipped with an atomizing spray nozzle. The plants were dried in the sprayer fume hood and then removed from the sprayer. Each pot was placed into perforated plastic bags with a zip closure. About 10 to 11 armyworm larvae were placed into the bag and the bags zipped closed. Test plants were maintained in a growth room at about 25° C. and about 20-40% relative humidity for 4 days, avoiding direct exposure to fluorescent light (24 hour photoperiod) to prevent trapping of heat inside the bags. Mortality and reduced feeding were assessed 4 days after treatment, compared to untreated control plants.

Cc1ccc(C(C)C)c(N/C(=N/N=C/c2ccc(-c3nn(C)c(NC(=O)c4ccc(OC(F)(F)F)cc4)c3C#N)cc2)SCOC(=O)C(C)C)c1 [Compound C-8, [(Z)—N′-[(E)-[4-[4-cyano-1-methyl-5-[[4-(trifluoromethoxy)benzoyl]amino]pyrazol-3-yl]phenyl]methyleneamino]-N-(2-isopropyl-5-methylphenyl)carbamimidoyl]sulfanylmethyl 2-methylpropanoate]
mortality at 500 ppm [1]: ≥ 75% | mortality at 800 ppm [2]: ≥ 50% | mortality at 800 ppm [3]: ≥ 75% | mortality at 800 ppm [4]: ≥ 75% | mortality at 500 ppm [5]: ≥ 75% | mortality at 300 ppm [6]: ≥ 75%

CC(=O)OCS/C(=N\N=C\c1ccc(-c2nn(C)c(NC(=O)c3ccc(OC(F)(F)F)cc3)c2C#N)cc1)Nc1cc(C)ccc1C(C)C [Compound C-7, [(Z)—N′-[(E)-[4-[4-cyano-1-methyl-5-[[4-(trifluoromethoxy)benzoyl]amino]pyrazol-3-yl]phenyl]methyleneamino]-N-(2-isopropyl-5-methylphenyl)carbamimidoyl]sulfanylmethyl acetate]
mortality at 500 ppm [1]: ≥ 75% | mortality at 800 ppm [2]: ≥ 50% | mortality at 800 ppm [3]: ≥ 75% | mortality at 800 ppm [4]: ≥ 75% | mortality at 500 ppm [5]: ≥ 75% | mortality at 300 ppm [6]: ≥ 75%
